Laboratory results as given in patent US4698352A, “4-oxo-1,4-dihydronicotinic acid derivatives, salts thereof, and antibacterial agents containing the same” (Toyama Chemical Co., Ltd., priority 1982, dated 1987).
Values after ≈ are worked out from the molar mass of the structure shown. Like-named read-outs stand apart in the source and are kept apart here.

Key:
Experiment in all cases: Antibacterial activity (MIC), agar dilution
Assay type in all cases: cell-based
[1] = tested on: Aci. antitratus A-6; conditions: 20 h, Aci. antitratus A-6; 10^6 cells per ml; 37° C., 20 hours; read-out: MIC
Excerpt: (§1) The amount of bacteria inoculated was 10^4 cells per plate (10^6 cells per ml).

[2] = tested on: E. coli NIHJ JC-2; conditions: Escherichia coli, NIHJJC2, 20 h, E. coli NIHJ JC-2; 10^6 cells per ml; 37° C., 20 hours; read-out: MIC
Excerpt: as §1

[3] = tested on: E. coli TK-111; conditions: Escherichia coli, TK111, 20 h, E. coli TK-111; 10^6 cells per ml; 37° C., 20 hours; read-out: MIC
Excerpt: as §1

[4] = tested on: Ent. cloacae IID977; conditions: Enterobacter cloacae, IID977, 20 h, Ent. cloacae IID977; 10^6 cells per ml; 37° C., 20 hours; read-out: MIC
Excerpt: as §1

[5] = tested on: Kl. pneumoniae Y-41; conditions: Klebsiella pneumoniae, Y41, 10^6 cells per ml, 37° C., 20 hours, read-out: MIC
Excerpt: as §1

[6] = tested on: Kl. pneumoniae Y-50; conditions: Klebsiella pneumoniae, Y50, 20 h, 10^6 cells per ml, 37° C., read-out: MIC
Excerpt: as §1

[7] = tested on: Pro. mirabilis T-111; conditions: Proteus mirabilis, 37° C.
Excerpt: as §1

[8] = tested on: Pro. morganii T-216; conditions: Morganella morganii, 37° C.
Excerpt: as §1

[9] = tested on: Pro. vulgaris GN3027; conditions: Proteus vulgaris, GN3027, 20 h, Pro. vulgaris GN3027; 10^6 cells per ml; 37° C., 20 hours; read-out: MIC
Excerpt: as §1

[10] = tested on: Ps. aeruginosa IFO3445; conditions: Pseudomonas aeruginosa
Excerpt: as §1

[11] = tested on: Ps. aeruginosa S-68; conditions: Pseudomonas aeruginosa
Excerpt: as §1

[12] = tested on: St. aureus FDA209P; conditions: Staphylococcus aureus, FDA209P, 20 h, St. aureus FDA209P; 10^6 cells per ml; 37° C., 20 hours; read-out: MIC
Excerpt: as §1

[13] = tested on: E. coli TK-3*; conditions: Escherichia coli, 20 h, E. coli TK-3, penicillinase-producing; 10^6 cells per ml; read-out: MIC
Excerpt: as §1
(§2) * Penicillinase-producing bacteria

[14] = tested on: Kl. pneumoniae Y-4*; conditions: Klebsiella pneumoniae, 20 h, Kl. pneumoniae Y-4, penicillinase-producing; 10^6 cells per ml; read-out: MIC
Excerpt: as §1, §2

[15] = tested on: Ps. aeruginosa GN3379*; conditions: Pseudomonas aeruginosa, 20 h; Ps. aeruginosa GN3379, penicillinase-producing; 10^6 cells per ml; read-out: MIC
Excerpt: as §1, §2

[16] = tested on: St. aureus F-137*; conditions: Staphylococcus aureus, 20 h, St. aureus F-137, penicillinase-producing; 10^6 cells per ml; read-out: MIC
Excerpt: as §1, §2

[17] = tested on: E. coli GN5482**; conditions: Escherichia coli, 20 h; E. coli GN5482, cephalospolinase-producing; 10^6 cells per ml; read-out: MIC
Excerpt: as §1
(§3) ** Cephalospolinase-producing bacteria

[18] = tested on: Pro. vulgaris GN76**; conditions: Proteus vulgaris, 20 h; Pro. vulgaris GN76, cephalospolinase-producing; 10^6 cells per ml; read-out: MIC
Excerpt: as §1, §3

[19] = tested on: Ps. aeruginosa GN918**; conditions: Pseudomonas aeruginosa, Ps. aeruginosa GN918, cephalospolinase-producing, 10^6 cells per ml
Excerpt: as §1, §3

[20] = T111, 10^6 cells per ml, 20 hours, read-out: MIC
[21] = T216, 10^6 cells per ml, 20 hours, read-out: MIC
[22] = Ps. aeruginosa IFO3445, 10^6 cells per ml, 37° C., 20 hours, read-out: MIC
[23] = S68, Ps. aeruginosa S-68, 10^6 cells per ml, 37° C., 20 hours, read-out: MIC

CC(=O)Oc1ccc(-n2cc(C(=O)O)c(=O)cc2-c2ccc(-c3cccs3)cc2)cc1
MIC [1]: ≤ 0.05 µg/mL | MIC [2]: 0.2 µg/mL (≈ 0.464 µM) | MIC [3]: ≤ 0.05 µg/mL | MIC [4]: 0.39 µg/mL (≈ 0.904 µM) | MIC [5]: 0.78 µg/mL (≈ 1.81 µM) | MIC [6]: 0.39 µg/mL (≈ 0.904 µM) | MIC [7, 20]: 0.39 µg/mL (≈ 0.904 µM) | MIC [8, 21]: 0.39 µg/mL (≈ 0.904 µM) | MIC [9]: ≤ 0.05 µg/mL | MIC ([10]; IFO3445, 20 h): 1.56 µg/mL (≈ 3.62 µM) | MIC ([11]; S68, 20 h): 1.56 µg/mL (≈ 3.62 µM) | MIC [12]: ≤ 0.05 µg/mL | MIC [13]: 0.39 µg/mL (≈ 0.904 µM) | MIC [14]: 1.56 µg/mL (≈ 3.62 µM) | MIC [15]: 3.13 µg/mL (≈ 7.25 µM) | MIC [16]: ≤ 0.05 µg/mL | MIC [17]: ≤ 0.05 µg/mL | MIC [18]: 0.39 µg/mL (≈ 0.904 µM) | MIC ([19]; GN918, 20 h): 1.56 µg/mL (≈ 3.62 µM)

CC(=O)Oc1ccc(-n2cc(C(=O)O)c(=O)cc2-c2ccc(N(C)C)cc2)c(C)c1
MIC [1]: ≤ 0.05 µg/mL | MIC [2]: 0.2 µg/mL (≈ 0.492 µM) | MIC [3]: ≤ 0.05 µg/mL | MIC [4]: 0.78 µg/mL (≈ 1.92 µM) | MIC [5]: 1.56 µg/mL (≈ 3.84 µM) | MIC [6]: 0.39 µg/mL (≈ 0.96 µM) | MIC [7, 20]: 0.78 µg/mL (≈ 1.92 µM) | MIC ([8]; T216, 20 h, 10^6 cells per ml): 1.56 µg/mL (≈ 3.84 µM) | MIC [9]: 0.39 µg/mL (≈ 0.96 µM) | MIC [10, 22]: 6.25 µg/mL (≈ 15.4 µM) | MIC [11, 23]: 3.13 µg/mL (≈ 7.7 µM) | MIC [12]: ≤ 0.05 µg/mL | MIC [13]: 0.39 µg/mL (≈ 0.96 µM) | MIC [14]: 1.56 µg/mL (≈ 3.84 µM) | MIC [15]: 6.25 µg/mL (≈ 15.4 µM) | MIC [16]: ≤ 0.05 µg/mL | MIC [17]: ≤ 0.05 µg/mL | MIC [18]: 0.39 µg/mL (≈ 0.96 µM) | MIC ([19]; GN918, 20 h): 1.56 µg/mL (≈ 3.84 µM)

O=C(O)c1cn(-c2ccc(O)cc2)c(-c2ccc(-c3ccc(Cl)s3)cc2)cc1=O
MIC [1]: 0.1 µg/mL (≈ 0.236 µM) | MIC [2]: 0.2 µg/mL (≈ 0.472 µM) | MIC [3]: 0.1 µg/mL (≈ 0.236 µM) | MIC [4]: 0.78 µg/mL (≈ 1.84 µM) | MIC [5]: 1.56 µg/mL (≈ 3.68 µM) | MIC [6]: 0.39 µg/mL (≈ 0.92 µM) | MIC ([7]; T111, 20 h, 10^6 cells per ml): 1.56 µg/mL (≈ 3.68 µM) | MIC [8, 21]: 0.78 µg/mL (≈ 1.84 µM) | MIC [9]: ≤ 0.1 µg/mL | MIC [10, 22]: 3.13 µg/mL (≈ 7.38 µM) | MIC [11, 23]: 3.13 µg/mL (≈ 7.38 µM) | MIC [12]: ≤ 0.05 µg/mL | MIC [13]: 0.78 µg/mL (≈ 1.84 µM) | MIC [14]: 1.56 µg/mL (≈ 3.68 µM) | MIC [15]: 3.13 µg/mL (≈ 7.38 µM) | MIC [16]: ≤ 0.05 µg/mL | MIC [17]: ≤ 0.05 µg/mL | MIC [18]: 0.39 µg/mL (≈ 0.92 µM) | MIC ([19]; 20 h, read-out: MIC): 0.78 µg/mL (≈ 1.84 µM)

COc1ccc(-c2ccc(-c3cc(=O)c(C(=O)O)cn3-c3ccc(O)cc3)cc2)s1
MIC [1]: 0.1 µg/mL (≈ 0.238 µM) | MIC [2]: 0.39 µg/mL (≈ 0.93 µM) | MIC [3]: 0.1 µg/mL (≈ 0.238 µM) | MIC [4]: 0.78 µg/mL (≈ 1.86 µM) | MIC [5]: 1.56 µg/mL (≈ 3.72 µM) | MIC [6]: 0.78 µg/mL (≈ 1.86 µM) | MIC [7, 20]: 0.78 µg/mL (≈ 1.86 µM) | MIC [8, 21]: 0.39 µg/mL (≈ 0.93 µM) | MIC [9]: 0.2 µg/mL (≈ 0.477 µM) | MIC [10, 22]: 6.25 µg/mL (≈ 14.9 µM) | MIC [11, 23]: 3.13 µg/mL (≈ 7.46 µM) | MIC [12]: ≤ 0.05 µg/mL | MIC [13]: 0.39 µg/mL (≈ 0.93 µM) | MIC [14]: 1.56 µg/mL (≈ 3.72 µM) | MIC [15]: 3.13 µg/mL (≈ 7.46 µM) | MIC [16]: ≤ 0.05 µg/mL | MIC [17]: ≤ 0.05 µg/mL | MIC [18]: 0.39 µg/mL (≈ 0.93 µM) | MIC ([19]; 20 h, read-out: MIC): 0.78 µg/mL (≈ 1.86 µM)

Cc1ccc(-c2ccc(-c3cc(=O)c(C(=O)O)cn3-c3ccc(O)cc3)cc2)s1
MIC [1]: ≤ 0.05 µg/mL | MIC [2]: 0.2 µg/mL (≈ 0.496 µM) | MIC [3]: 0.1 µg/mL (≈ 0.248 µM) | MIC [4]: 0.78 µg/mL (≈ 1.93 µM) | MIC [5]: 1.56 µg/mL (≈ 3.87 µM) | MIC [6]: 0.78 µg/mL (≈ 1.93 µM) | MIC [7, 20]: 0.39 µg/mL (≈ 0.967 µM) | MIC [8, 21]: 0.78 µg/mL (≈ 1.93 µM) | MIC [9]: 0.1 µg/mL (≈ 0.248 µM) | MIC [10, 22]: 6.25 µg/mL (≈ 15.5 µM) | MIC [11, 23]: 3.13 µg/mL (≈ 7.76 µM) | MIC [12]: ≤ 0.05 µg/mL | MIC [13]: 0.39 µg/mL (≈ 0.967 µM) | MIC [14]: 1.56 µg/mL (≈ 3.87 µM) | MIC [15]: 6.25 µg/mL (≈ 15.5 µM) | MIC [16]: ≤ 0.05 µg/mL | MIC [17]: ≤ 0.05 µg/mL | MIC [18]: 0.39 µg/mL (≈ 0.967 µM) | MIC ([19]; GN918, 20 h): 1.56 µg/mL (≈ 3.87 µM)

Cn1ccc2cc(-c3cc(=O)c(C(=O)O)cn3-c3ccc(O)cc3)ccc21
MIC [1]: 0.1 µg/mL (≈ 0.277 µM) | MIC [2]: 0.1 µg/mL (≈ 0.277 µM) | MIC [3]: ≤ 0.05 µg/mL | MIC [4]: 0.39 µg/mL (≈ 1.08 µM) | MIC [5]: 0.78 µg/mL (≈ 2.16 µM) | MIC [6]: 0.2 µg/mL (≈ 0.555 µM) | MIC [7, 20]: 0.78 µg/mL (≈ 2.16 µM) | MIC [8, 21]: 0.39 µg/mL (≈ 1.08 µM) | MIC [9]: 0.1 µg/mL (≈ 0.277 µM) | MIC [10, 22]: 3.13 µg/mL (≈ 8.69 µM) | MIC [11, 23]: 3.13 µg/mL (≈ 8.69 µM) | MIC [12]: ≤ 0.05 µg/mL | MIC [13]: 0.39 µg/mL (≈ 1.08 µM) | MIC [14]: 0.78 µg/mL (≈ 2.16 µM) | MIC [15]: 3.13 µg/mL (≈ 8.69 µM) | MIC [16]: ≤ 0.05 µg/mL | MIC [17]: ≤ 0.05 µg/mL | MIC [18]: 0.39 µg/mL (≈ 1.08 µM) | MIC ([19]; 20 h, read-out: MIC): 0.78 µg/mL (≈ 2.16 µM)
